From US20250051344A1, “BIFUNCTIONAL SELECTIVE DEGRADERS OF SMARCA2 AND THERAPEUTIC USES THEREOF” (Nurix Therapeutics, Inc., priority 2023, published 2025)

Columns and labels:
SMARCA2 = target: T1, SMARCA2 (Homo sapiens, UniProt P51531); assay: SMARCA2 Cellular Degradation Assay (Western blot analysis on Jess platform); assay type: cell-based; conditions: for DC50 / Dmax: cellular degradation; for Fold Selectivity SMARCA4/2: ratio DC50 SMARCA4 / DC50 SMARCA2
T1 construct: endogenous in cells
How it was run: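 Cells recovered from tumors are lysed, cleared at 20,817×g, and protein is quantified by BCA. Equal protein (5 μg) is then probed on Jess for SMARCA2 and actin, and normalized SMARCA2 signal is reported against vehicle.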

SMARCA4 = target: T2, SMARCA4 (Homo sapiens, UniProt P51532); assay: Cellular degradation assay, SMARCA4 (Table 1); assay type: cell-based
T2 construct: endogenous in cells
T2 sequence (P51532 whole entry, species assumed): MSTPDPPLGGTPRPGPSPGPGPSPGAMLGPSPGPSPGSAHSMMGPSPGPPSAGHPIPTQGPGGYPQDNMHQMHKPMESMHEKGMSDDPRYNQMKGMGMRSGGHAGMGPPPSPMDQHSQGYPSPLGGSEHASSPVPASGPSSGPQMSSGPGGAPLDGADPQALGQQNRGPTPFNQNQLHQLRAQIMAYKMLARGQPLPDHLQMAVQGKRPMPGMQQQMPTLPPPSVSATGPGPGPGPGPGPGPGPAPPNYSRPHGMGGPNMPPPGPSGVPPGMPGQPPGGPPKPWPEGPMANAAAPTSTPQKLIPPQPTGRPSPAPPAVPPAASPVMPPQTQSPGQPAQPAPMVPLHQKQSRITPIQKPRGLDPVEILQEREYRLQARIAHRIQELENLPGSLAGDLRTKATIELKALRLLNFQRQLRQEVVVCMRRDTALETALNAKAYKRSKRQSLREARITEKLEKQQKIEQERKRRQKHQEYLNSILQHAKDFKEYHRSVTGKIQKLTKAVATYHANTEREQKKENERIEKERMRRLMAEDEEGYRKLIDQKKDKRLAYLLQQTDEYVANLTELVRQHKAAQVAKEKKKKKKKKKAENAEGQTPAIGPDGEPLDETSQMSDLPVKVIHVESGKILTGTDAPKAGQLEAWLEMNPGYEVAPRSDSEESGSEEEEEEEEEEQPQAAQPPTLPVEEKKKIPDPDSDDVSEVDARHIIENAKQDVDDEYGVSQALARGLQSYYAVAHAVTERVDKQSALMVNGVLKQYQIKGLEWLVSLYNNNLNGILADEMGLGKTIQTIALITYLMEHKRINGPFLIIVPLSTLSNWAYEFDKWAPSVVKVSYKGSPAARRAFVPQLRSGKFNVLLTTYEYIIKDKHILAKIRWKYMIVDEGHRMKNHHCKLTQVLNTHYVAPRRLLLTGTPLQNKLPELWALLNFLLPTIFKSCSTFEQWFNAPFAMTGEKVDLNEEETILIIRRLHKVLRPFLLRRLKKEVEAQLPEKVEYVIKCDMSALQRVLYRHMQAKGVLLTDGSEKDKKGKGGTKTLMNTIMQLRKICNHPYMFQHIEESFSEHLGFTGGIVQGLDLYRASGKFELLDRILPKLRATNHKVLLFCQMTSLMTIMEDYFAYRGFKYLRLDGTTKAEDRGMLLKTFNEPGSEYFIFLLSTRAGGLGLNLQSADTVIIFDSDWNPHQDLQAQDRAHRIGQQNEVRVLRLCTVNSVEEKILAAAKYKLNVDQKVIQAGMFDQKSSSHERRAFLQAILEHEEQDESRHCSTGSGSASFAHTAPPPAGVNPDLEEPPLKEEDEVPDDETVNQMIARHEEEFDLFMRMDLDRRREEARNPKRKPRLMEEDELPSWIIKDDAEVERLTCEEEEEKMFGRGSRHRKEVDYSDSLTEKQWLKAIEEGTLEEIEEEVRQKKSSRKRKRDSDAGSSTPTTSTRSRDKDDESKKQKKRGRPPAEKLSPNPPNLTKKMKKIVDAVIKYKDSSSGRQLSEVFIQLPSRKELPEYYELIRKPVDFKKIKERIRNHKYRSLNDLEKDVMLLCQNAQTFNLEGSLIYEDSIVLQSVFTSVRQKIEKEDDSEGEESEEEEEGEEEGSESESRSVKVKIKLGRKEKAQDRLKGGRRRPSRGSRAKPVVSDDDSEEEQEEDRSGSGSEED

T1 sequence (P51531 whole entry, species assumed): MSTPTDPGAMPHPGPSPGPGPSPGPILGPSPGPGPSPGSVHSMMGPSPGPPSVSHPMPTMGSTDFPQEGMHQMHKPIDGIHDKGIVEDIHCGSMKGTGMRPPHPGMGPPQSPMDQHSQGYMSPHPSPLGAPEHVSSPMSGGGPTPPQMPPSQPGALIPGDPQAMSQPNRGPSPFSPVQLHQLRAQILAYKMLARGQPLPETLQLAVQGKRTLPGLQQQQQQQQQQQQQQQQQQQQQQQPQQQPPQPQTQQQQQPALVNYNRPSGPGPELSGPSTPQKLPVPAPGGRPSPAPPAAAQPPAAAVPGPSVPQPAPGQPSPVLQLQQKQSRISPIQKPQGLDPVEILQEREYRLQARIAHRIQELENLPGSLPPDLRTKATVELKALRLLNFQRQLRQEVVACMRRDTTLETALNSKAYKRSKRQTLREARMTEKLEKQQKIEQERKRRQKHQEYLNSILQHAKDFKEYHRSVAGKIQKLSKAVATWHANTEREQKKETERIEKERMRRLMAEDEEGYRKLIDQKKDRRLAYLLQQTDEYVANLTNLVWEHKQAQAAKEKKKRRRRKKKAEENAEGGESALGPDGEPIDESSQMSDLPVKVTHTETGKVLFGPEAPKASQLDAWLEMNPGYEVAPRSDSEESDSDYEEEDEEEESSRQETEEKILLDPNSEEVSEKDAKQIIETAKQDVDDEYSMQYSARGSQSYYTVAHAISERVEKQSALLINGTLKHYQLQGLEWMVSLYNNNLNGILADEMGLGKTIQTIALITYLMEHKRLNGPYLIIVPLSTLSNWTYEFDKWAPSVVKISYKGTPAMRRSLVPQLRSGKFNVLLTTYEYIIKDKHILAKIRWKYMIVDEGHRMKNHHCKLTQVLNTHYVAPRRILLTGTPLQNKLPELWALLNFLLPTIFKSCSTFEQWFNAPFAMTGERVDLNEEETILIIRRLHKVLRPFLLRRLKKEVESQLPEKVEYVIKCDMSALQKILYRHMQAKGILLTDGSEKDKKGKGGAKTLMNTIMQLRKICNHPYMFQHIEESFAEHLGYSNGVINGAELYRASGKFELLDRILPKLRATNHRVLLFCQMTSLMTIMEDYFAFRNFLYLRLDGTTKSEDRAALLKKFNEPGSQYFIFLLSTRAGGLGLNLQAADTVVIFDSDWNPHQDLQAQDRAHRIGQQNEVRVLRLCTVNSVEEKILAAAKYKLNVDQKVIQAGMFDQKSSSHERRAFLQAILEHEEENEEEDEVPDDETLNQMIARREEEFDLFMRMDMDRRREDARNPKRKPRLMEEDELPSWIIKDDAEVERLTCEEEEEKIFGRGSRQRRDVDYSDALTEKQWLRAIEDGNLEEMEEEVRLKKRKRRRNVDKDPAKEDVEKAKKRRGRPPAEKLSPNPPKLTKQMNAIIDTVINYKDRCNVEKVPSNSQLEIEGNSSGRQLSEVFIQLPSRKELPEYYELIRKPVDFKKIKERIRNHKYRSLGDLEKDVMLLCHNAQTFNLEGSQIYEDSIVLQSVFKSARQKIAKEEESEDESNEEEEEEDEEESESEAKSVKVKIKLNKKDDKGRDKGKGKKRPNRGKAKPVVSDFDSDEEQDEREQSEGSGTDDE

| SMILES | DC50 (SMARCA2) [nM] | Dmax (SMARCA2) [%] | Fold Selectivity SMARCA4/2 (SMARCA2) | DC50 (SMARCA4) [nM] | Dmax (SMARCA4) [%] |
| --- | --- | --- | --- | --- | --- |
| O=C1CC[C@H](c2ccc(N3CC[C@]4(C3)C[C@@H](N3CC5(CCN(C(=O)C6(c7ccccc7)CCN(c7cnnc(-c8ccccc8O)c7)CC6)CC5)C3)C4)cc2)C(=O)N1 (racemic) [Example 129, (3RS&)-3-{4-[(2rs,4sr)-2-(7-{1-[6-(2-hydroxyphenyl)pyridazin-4-yl]-4-phenylpiperidine-4-carbonyl}-2,7-diazaspiro[3.5]nonan-2-yl)-6-azaspiro[3.4]octan-6-yl]phenyl}piperidine-2,6-dione] | 20.3 | 78.2 | 6 | 125 | 61 |
| CN(C(=O)C1(c2ccccc2)CCN(c2cnnc(-c3ccccc3O)c2)CC1)C1CCN(CCC2CCN(c3cccc4c3n(C)c(=O)n4C3CCC(=O)NC3=O)CC2)CC1 (racemic) [Example 130, rac-N-{1-[2-(1-{1-[(3r)-2,6-dioxopiperidin-3-yl]-3-methyl-2-oxo-2,3-dihydro-1H-1,3-benzodiazol-4-yl}piperidin-4-yl)ethyl]piperidin-4-yl}-1-[6-(2-hydroxyphenyl)pyridazin-4-yl]-N-methyl-4-phenylpiperidine-4-carboxamide] | 0.31 | 96.4 | 28 | 8.72 | 84.4 |
| O=C1CCC(c2ccc(N3CCC(CCN4CC5(C4)CN(C(=O)C4(c6ccccc6F)CCN(c6cnnc(-c7ccccc7O)c6)CC4)C5)CC3)cc2)C(=O)N1 (racemic) [Example 132, rac-(3R)-3-{4-[4-(2-{6-[4-(2-fluorophenyl)-1-[6-(2-hydroxyphenyl)pyridazin-4-yl]piperidine-4-carbonyl]-2,6-diazaspiro[3.3]heptan-2-yl}ethyl)piperidin-1-yl]phenyl}piperidine-2,6-dione] | 10.2 | 71.6 | 984 |  | 15 |
| O=C1CCC(c2ccc(N3CCC4(CC3)CC(CN3CC5(CCN(C(=O)C6(c7ccccc7)CCN(c7cnnc(-c8ccccc8O)c7)CC6)CC5)C3)C4)cc2)C(=O)N1 (racemic) [Example 137, rac-(3R)-3-(4-{2-[(7-{1-[6-(2-hydroxyphenyl)pyridazin-4-yl]-4-phenylpiperidine-4-carbonyl}-2,7-diazaspiro[3.5]nonan-2-yl)methyl]-7-azaspiro[3.5]nonan-7-yl}phenyl)piperidine-2,6-dione] | 44.4 | 66.3 | 225 |  | 44.9 |
| O=C1CCC(c2ccc(N3CCC(CN4CC5(C4)CN(C(=O)C4(c6ccccc6)CCN(c6cnnc(-c7ccccc7O)c6)CC4)C5)CC3)c(F)c2F)C(=O)N1 (racemic) [Example 138, rac-(3R)-3-(2,3-difluoro-4-{4-[(6-{1-[6-(2-hydroxyphenyl)pyridazin-4-yl]-4-phenylpiperidine-4-carbonyl}-2,6-diazaspiro[3.3]heptan-2-yl)methyl]piperidin-1-yl}phenyl)piperidine-2,6-dione] | 4.09 | 89 | 9 | 38.3 | 67.1 |
| C[C@@H](C1CCN(c2ccc([C@H]3CCC(=O)NC3=O)cn2)CC1)N1CC2(CN(C(=O)C3(c4ccccc4)CCN(c4cnnc(-c5ccccc5O)c4)CC3)C2)C1 (racemic) [Example 141, (3RS&)-3-(6-{4-[(1RS)-1-(6-{1-[6-(2-hydroxyphenyl)pyridazin-4-yl]-4-phenylpiperidine-4-carbonyl}-2,6-diazaspiro[3.3]heptan-2-yl)ethyl]piperidin-1-yl}pyridin-3-yl)piperidine-2,6-dione] | 6.59 | 87 | 5 | 34.9 | 71.5 |
| CN(CC1(c2ccccc2)CCN(c2cnnc(-c3ccccc3O)c2)CC1)C1CCN(C(=O)C2CCN(c3ccc(C4CCC(=O)NC4=O)cc3)CC2)CC1 (racemic) [Example 142, rac-(r)-3-(4-(4-(4-(((1-(6-(2-hydroxyphenyl)pyridazin-4-yl)-4-phenylpiperidin-4-yl)methyl)(methyl)amino)piperidine-1-carbonyl)piperidin-1-yl)phenyl)piperidine-2,6-dione] | 24.5 | 69.9 | 3 | 84.8 | 60 |
| CN(CC1(c2ccccc2)CCN(c2cnnc(-c3ccccc3O)c2)CC1)C1CCN(C(=O)CN2CCC(c3ccc(C4CCC(=O)NC4=O)cc3)CC2)CC1 (racemic) [Example 143, rac-(r)-3-(4-(1-(2-(4-(((1-(6-(2-hydroxyphenyl)pyridazin-4-yl)-4-phenylpiperidin-4-yl)methyl)(methyl)amino)piperidin-1-yl)-2-oxoethyl)piperidin-4-yl)phenyl)piperidine-2,6-dione] | 13.3 | 86.5 | 12 | 161 | 66.7 |
| O=C1CC[C@H](c2ccc(N3CCC(CCN4CC5CCC(C4)C5C(=O)NCC4(c5ccccc5)CCN(c5cnnc(-c6ccccc6O)c5)CC4)CC3)cc2)C(=O)N1 (mixture of isomers) [Example 144, rac-3-(2-(1-(4-((r)-2,6-dioxopiperidin-3-yl)phenyl)piperidin-4-yl)ethyl)-n-((1-(6-(2-hydroxyphenyl)pyridazin-4-yl)-4-phenylpiperidin-4-yl)methyl)-3-azabicyclo[3.2.1]octane-8-carboxamide] | 1.36 | 93.7 | 10 | 13.4 | 80.7 |
| O=C1CCC(c2ccc(N3C[C@H]4CN(CC(=O)N5CCC6(CC5)CN(C(=O)C5(c7ccccc7)CCN(c7cnnc(-c8ccccc8O)c7)CC5)C6)C[C@@H]4C3)cc2)C(=O)N1 (mixture of isomers) [Example 150, (3RS)-3-{4-[(3aR,6aR)-5-[2-(2-{1-[6-(2-hydroxyphenyl)pyridazin-4-yl]-4-phenylpiperidine-4-carbonyl}-2,7-diazaspiro[3.5]nonan-7-yl)-2-oxoethyl]-octahydropyrrolo[3,4-c]pyrrol-2-yl]phenyl}piperidine-2,6-dione] | 22.6 | 73.9 | 442 |  | 50.6 |

The remaining compounds from weak to strong by DC50 (SMARCA2), led by results:

| DC50 (SMARCA2) [nM] | Dmax (SMARCA2) [%] | Fold Selectivity SMARCA4/2 (SMARCA2) | DC50 (SMARCA4) [nM] | Dmax (SMARCA4) [%] | SMILES |
| --- | --- | --- | --- | --- | --- |
| 29.4 | 71.3 | 340 |  | 38.9 | CC1(CCN2CC3(C2)CN(C(=O)C2(c4ccccc4)CCN(c4cnnc(-c5ccccc5O)c4)CC2)C3)CCN(c2ccc(C3CCC(=O)NC3=O)cc2)CC1 (racemic) [Example 131, rac-(3R)-3-(4-{4-[2-(6-{1-[6-(2-hydroxyphenyl)pyridazin-4-yl]-4-phenylpiperidine-4-carbonyl}-2,6-diazaspiro[3.3]heptan-2-yl)ethyl]-4-methylpiperidin-1-yl}phenyl)piperidine-2,6-dione] |
| 13.7 | 76.8 | 3 | 47.3 | 64.5 | CC(N[C@H]1CC[C@@H](NC(=O)C2(c3ccccc3)CCN(c3cnnc(-c4ccccc4O)c3)CC2)CC1)C1CCN(c2ccc([C@H]3CCC(=O)NC3=O)cn2)CC1 (mixture of isomers) [Example 147, 1-[6-(2-hydroxyphenyl)pyridazin-4-yl]-4-phenyl-N-[(1,4s)-4-{[1-(1-{5-[(3rs)-2,6-dioxopiperidin-3-yl]pyridin-2-yl}piperidin-4-yl)ethyl]amino}cyclohexyl]piperidine-4-carboxamide] |
| 8.79 | 87.1 | 1138 |  | 31.1 | CN(C(=O)C1(c2ccc(F)cc2)CCN(c2cnnc(-c3ccccc3O)c2)CC1)C1CCN(CCC2CCN(c3ccc(C4CCC(=O)NC4=O)cc3)CC2)CC1 (racemic) [Example 134, rac-N-{1-[2-(1-{4-[(3R)-2,6-dioxopiperidin-3-yl]phenyl}piperidin-4-yl)ethyl]piperidin-4-yl}-4-(4-fluorophenyl)-1-[6-(2-hydroxyphenyl)pyridazin-4-yl]-n-methylpiperidine-4-carboxamide] |
| 5.57 | 83 | 4 | 21.9 | 72.8 | CN(CC1(c2ccccc2)CCN(c2cnnc(-c3ccccc3O)c2)CC1)C(=O)C1CCN(CCC2CCN(c3ccc([C@H]4CCC(=O)NC4=O)cc3)CC2)C2(CCC2)C1 (mixture of isomers) [Example 146, rac-5-(2-(1-(4-((r)-2,6-dioxopiperidin-3-yl)phenyl)piperidin-4-yl)ethyl)-n-((1-(6-(2-hydroxyphenyl)pyridazin-4-yl)-4-phenylpiperidin-4-yl)methyl)-n-methyl-5-azaspiro[3.5]nonane-8-carboxamide] |
| 2.1 | 94 | 8 | 17.8 | 84.2 | O=C1CCC(c2c(F)cc(N3CCC(CN4CCC5(CC4)CN(C(=O)C4(Oc6ccccc6)CCN(c6cnnc(-c7ccccc7O)c6)CC4)C5)CC3)cc2F)C(=O)N1 (racemic) [Example 136, rac-(3R)-3-(2,6-difluoro-4-{4-[(2-{1-[6-(2-hydroxyphenyl)pyridazin-4-yl]-4-phenoxypiperidine-4-carbonyl}-2,7-diazaspiro[3.5]nonan-7-yl)methyl]piperidin-1-yl}phenyl)piperidine-2,6-dione] |
| 1.69 | 92.8 | 6 | 9.67 | 84.5 | COCCN(CC1(c2ccccc2)CCN(c2cnnc(-c3ccccc3O)c2)CC1)C(=O)C1CCN(CCC2CCN(c3ccc([C@@H]4CCC(=O)NC4=O)cc3)CC2)CC1 (racemic) [Example 145, rac-(r)-1-(2-(1-(4-(2,6-dioxopiperidin-3-yl)phenyl)piperidin-4-yl)ethyl)-n-((1-(6-(2-hydroxyphenyl)pyridazin-4-yl)-4-phenylpiperidin-4-yl)methyl)-n-(2-methoxyethyl)piperidine-4-carboxamide] |
